Reference: US6392049B1, “Process for preparing 2,4-dihydroxypyridine and 2,4-dihydroxy-3-nitropyridine” (Aventis Pharmaceuticals Inc., priority 1996, dated 2002)
Read-outs that look alike come from different tables or passages of the source.

Columns and labels:
A2 receptor = molecular target: T1, A2 receptor (Rattus norvegicus, UniProt P30543); experiment: A2 adenosine receptor binding, displacement of 3H-CGS 21680, rat brain striatum membranes
T1 construct: using membranes from rat brain striatum; from tissue; host or cells: rat brain striatum membranes
T1 sequence (P30543 whole entry): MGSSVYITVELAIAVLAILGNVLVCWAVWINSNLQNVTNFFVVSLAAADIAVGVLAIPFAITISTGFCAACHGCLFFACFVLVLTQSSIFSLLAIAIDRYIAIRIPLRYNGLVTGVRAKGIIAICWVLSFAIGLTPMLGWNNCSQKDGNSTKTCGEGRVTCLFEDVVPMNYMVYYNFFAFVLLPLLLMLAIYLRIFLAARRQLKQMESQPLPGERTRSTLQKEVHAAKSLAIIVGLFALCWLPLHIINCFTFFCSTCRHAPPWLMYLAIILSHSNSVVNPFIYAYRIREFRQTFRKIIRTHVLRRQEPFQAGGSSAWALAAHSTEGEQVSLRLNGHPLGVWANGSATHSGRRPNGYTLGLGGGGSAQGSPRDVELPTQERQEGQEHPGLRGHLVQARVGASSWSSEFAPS
Method: Non-specific binding is assessed in the presence of 20 μm 2-chloroadenosine.
(§1) The assays are run in glass test tubes in duplicate at 25° C. Once the membranes are added, the tubes are vortexed and incubated at 25° C. for 60 minutes (A1 assay) or 90 minutes (A2 assay) on a rotary shaker. The assay tubes are vortexed halfway through the incubation and again near the end. The assays are terminated by rapid filtration through 2.4 cm GF/B filters using a Brandel Cell Harvestor. The test tubes are washed three times with cold 50 mM tris-HCl (pH 7.7 or 7.4), with filtration being completed within 15 seconds. The damp filter circles are placed in glass scintillation vials filled with 10 ml of Aquasol II (New England Nuclear). The vials are allowed to shake overnight on a rotary shaker and are placed into a liquid scintillation analyzer for two minute counts. IC50 values for receptor binding, i.e. the concentration at which a compound of Formula I displaced the radiolabeled standard, are obtained using a curve-fitting computer program (RS/1, Bolt, Beranek and Newman, Boston, Mass.).

A1 receptor = molecular target: T2, A1 receptor (Rattus norvegicus, UniProt P25099); experiment: A1 adenosine receptor binding, displacement of 3H-CHA, whole rat brain membranes; details: 3H-CHA displacement, 25° C., 60 minutes
T2 construct: using a membrane preparation of whole rat brain; from tissue; host or cells: whole rat brain membranes
T2 sequence (P25099 1-326): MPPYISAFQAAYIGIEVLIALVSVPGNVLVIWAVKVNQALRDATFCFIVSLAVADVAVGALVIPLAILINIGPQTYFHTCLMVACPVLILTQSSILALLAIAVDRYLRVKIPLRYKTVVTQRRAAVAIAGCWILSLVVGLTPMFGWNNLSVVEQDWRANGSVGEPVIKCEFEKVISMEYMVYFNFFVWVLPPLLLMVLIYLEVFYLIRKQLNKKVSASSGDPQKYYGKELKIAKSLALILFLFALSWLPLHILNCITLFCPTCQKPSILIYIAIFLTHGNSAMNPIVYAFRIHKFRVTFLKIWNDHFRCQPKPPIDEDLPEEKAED
Method: Non-specific binding is assessed in the presence of 1 mM theophylline.
as §1

swine coronary arteries = experiment: In vitro vasorelaxation in isolated swine coronary arteries; type: cell-based
Method: Swine coronary arteries are obtained from a local slaughter house, dissected carefully and cleaned of fat, blood and adhering tissue. Rings approximately 2-3 mm wide are cut and transferred to water-jacketed tissue baths (10 mL) filled with warm (37° C.), oxygenated (O2/CO2:95%/5%) Krebs-Henseleit buffer and mounted on L-shaped hooks between stainless steel rods and a force transducer. […] PGF2a, before being exposed to 3 μM PGF2a.

rat adipocytes = experiment: Antilipolytic activity in rat adipocytes (in vitro lipolysis assay, glycerol production); type: cell-based; details: for EC50: read-out: EC50 (50% inhibition of glycerol production); for inhibition at 1 µM: read-out: % Inhibition of glycerol production, 1 μM
Method: Adipose tissue is removed from anesthetized rats and rinsed twice in incubation medium (2.09 g sodium bicarbonate and 0.04 g EDTA, disodium salt, in 1 L Krebs buffer). Each rat (300-350g) yields approximately 4 ml of adipose tissue. The adipose tissue (35 mL) is cut into small pieces with scissors and washed with incubation medium (50 mL). The mixture is poured into the barrel of a 50 mL syringe to which is attached a short piece of clamped tubing instead of a needle. The aqueous phase is allowed to drain. A second wash with incubation medium is passed through the syringe. The tissue is added to 50 mL of collagenase solution (collagenase (90 mg), bovine serum albumin (BSA) (500 mg), and 0.1 M calcium chloride solution (1 mL), in incubation medium (50 mL)) in a 1 L bottle. The mixture is shaken in an environmental at 37 ° C. for about 60 minutes under an atmosphere of 95% oxygen/5% carbon dioxide to effect digestion of the tissue. The dispersed cells are poured through 2 layers of cheese cloth into a 100 mL plastic beaker. The undigested clumps in the cloth are rinsed once with incubation medium (20 mL). The cells in the beaker are centrifuged in 2 plastic tubes for 30 seconds at room temperature at 300 rpm. The aqueous phase is aspirated from beneath the loosely packed layer of floating fat cells and discarded. The adipocytes are gently poured into a 250 mL plastic beaker containing 100 mL of rinse solution (1 g BSA per 100 mL incubation medium). After gentle stirring the centrifugation step is repeated. Another wash with rinse solution follows. The cells are pooled and their volume is estimated with a graduated cylinder. The adipocytes are diluted in twice their volume of assay buffer (incubation medium (120 mL), BSA (1.2 g), pyruvic acid (13 mg)).
The assay is performed in 20 mL plastic scintillation vials and the total assay volume is 4.2 ml. Assay buffer (2.5 mL), diluted adipocytes (1.5 mL), and a solution of the compound to be tested (12.3 μL) adenosine agonist (12.3 μL; varying concentration) is incubated in the environmental shaker for 15 minutes, then the reaction is started with norepinephrine solution (41.2 μL) (10 nM, in a carrier solution containing water (100 mL), BSA (4 mg), and 0.1 M EDTA (20 μL))and adenosine deaminase (1 μg/ml, 41.2 μL). After sixty minutes in the shaker the reaction is terminated by putting the vials on ice. […] The hard lipid layer is removed by aspiration and the aqueous layer is assayed for glycerol (400 μL of sample). The positive control is done in the absence of any adenosine agonist, substituting water in place of the solution to be tested.

[1] = tested on: normotensive anesthetized rat; experiment: Mean arterial blood pressure and heart rate in normotensive anesthetized rat; type: in vivo; details: for Anesthetized Rat HR/ED25: intravenous dose lowering heart rate by 25%; for Anesthetized Rat MAP/ED25: intravenous dose lowering mean arterial pressure by 25%
Method: Normotensive rats are anesthetized with sodium pentobarbital (50 mg/kg, i.p.) and placed on a heated surgical table. Cannulas are inserted into the femoral artery and veined to allow the measurement of arterial pressure and to facilitate the intravenous administration of test compounds. The animals are allowed to equilibrate for 10 minutes after surgery. Mean arterial pressure is continuously measured and recorded and heart rate is monitored using the arterial pressure pulse to trigger a cardiotachometer. After baseline parameters are established and recorded, increasing doses (1, 3, 10, 30, 100, 300 and 1000 μg/kg) of the compound of Formula I to be tested are administered intravenously. Maximal changes in the cardiovascular parameters are observed after each dose of the adenosine agonist. Only one compound is administered per rat.

[2] = 3H-CGS 21680 displacement, rat brain striatum membranes, 25° C., 90 minutes, read-out: Adenosine Receptor Binding Activity/IC50 (nM) A2
[3] = Sus scrofa, read-out: Vasorelaxation in Swine Coronary Artery/IC50 (μM)
[4] = Adipocyte, rat adipocytes, norepinephrine-stimulated
[5] = 50% reduction in tension of rings contracted with 3 μM PGF2a, read-out: Vasorelaxation in Swine Coronary Artery/IC50
[6] = Sus scrofa, read-out: Vasorelaxation (IC50)

Row | SMILES | IC50 (A2 receptor; [2]) [nM] | IC50 (A1 receptor) [nM] | IC50 (swine coronary arteries; [5]) [µM] | Anesthetized Rat HR/ED25 [1] [µg/kg] | Anesthetized Rat MAP/ED25 [1] [µg/kg] | also measured
1 | CO[C@@H]1[C@H](O)[C@@H](CO)O[C@H]1n1cnc2c(N[C@@H]3CC=CC[C@H]3c3cccs3)ncnc21 (relative stereo) [Example 49, N^6-[trans-5-(2-thienyl)cyclohex-1-en-4-yl]-2′-O-methyladenosine] | 2880 | 69 |  |  |  | IC50 (swine coronary arteries; [3]): 9.81 µM; EC50 (rat adipocytes; [4]): 18.6 nM
2 | CCNC(=O)[C@H]1C[C@@H](n2cnc3c(NCCc4cccs4)ccnc32)[C@H](O)[C@@H]1O (racemic) [Example 30, (±)-N6-[1-(thiopheny-2-yl)ethan-2-yl]-N′-1-deazaaristeromycin-5′-N-ethyl carboxamide] | > 1000 | 562 |  | >10 | 6 | IC50 (swine coronary arteries; [3]): 12.1 µM
3 | Cc1ncsc1CCNc1ncnc2c1ncn2[C@@H]1O[C@H](CO)[C@@H](O)[C@H]1O [Example 12, N^6-[2-(4′-methylthiazol-5′-yl)-ethyl]adenosine] | 224 | 23 | 0.5 | 17 | 4 | 
4 | OC[C@H]1O[C@@H](n2cnc3c(NCCNc4nc5ccccc5s4)ncnc32)[C@H](O)[C@@H]1O [Example 9, N^6-[2-(2′-aminobenzothia-zolyl)ethyl]adenosine] | 1000 | 4 | 11.9 | 4 | 5 | 
5 | OC[C@H]1O[C@@H](n2cnc3c(NC4CCCC4)ncnc32)[C@H](O)[C@@H]1O [CPA, N-cyclopentyladenosine] |  |  |  |  |  | IC50 (A2 receptor): 1580 nM; IC50 (swine coronary arteries; [6]): 3.18 µM; inhibition at 0.1 µM (rat adipocytes; Rattus norvegicus, Adipocyte, read-out: % Inhibition of glycerol production, 0.1 μM): 97%; inhibition at 1 µM (rat adipocytes; Rattus norvegicus, Adipocyte): 100%; EC50 (rat adipocytes; Rattus norvegicus, Adipocyte): 0.31 nM
6 | C[C@H](Cc1ccccc1)Nc1ncnc2c1ncn2[C@@H]1O[C@H](CO)[C@@H](O)[C@H]1O [R-PIA, R-phenylisopropyladenosine, reference compound] |  |  |  |  |  | IC50 (swine coronary arteries; literature compounds, Table V, methods as above, unit inferred, read-out: Vasorelaxation (IC50)): 0.76 µM; EC50 (rat adipocytes; rat adipocytes, norepinephrine-stimulated): 1 nM
7 | OC[C@H]1O[C@@H](n2cnc3c(NCCc4nccs4)ncnc32)[C@H](O)[C@@H]1O [Example 13, N^6-[2-(2′-thiazolyl)ethyl]-adenosine] | 191 | 41 | 0.24 | >10 | 3 | 
8 | C[C@H](Cc1cc2ccccc2s1)Nc1ncnc2c1ncn2[C@@H]1O[C@H](CO)[C@@H](O)[C@H]1O [Example 15, N^6-[(R)-1-methyl-2-(2′benzo-[b]-thiophenyl)ethyl]adenosine] |  | 4.07 |  | 1.4 | 1.5 | IC50 (swine coronary arteries; [3]): 2.45 µM
9 | OC[C@H]1O[C@@H](n2cnc3c(N[C@@H]4CCCC[C@H]4c4cccs4)ncnc32)[C@H](O)[C@@H]1O (relative stereo) [Example 7, N^6-[trans-2-(thiophen-2-yl)-cyclohex-1-yl]adenosine] | 28 | 3.5 |  | 18 | 6 | IC50 (swine coronary arteries; [3]): 4 µM
10 | CCNC(=O)[C@H]1O[C@@H](n2cnc3c(N)ncnc32)[C@H](O)[C@@H]1O [NECA, N-ethylcarboxamido-adenosine] |  |  |  |  |  | EC50 (rat adipocytes; Rattus norvegicus, Adipocyte): 2.5 nM
11 | CCNC(=O)[C@H]1O[C@@H](n2cnc3c(N)nc(NCCc4ccc(CCC(=O)O)cc4)nc32)[C@H](O)[C@@H]1O [CGS21680, 2-[[2-[4-[2-carboxethyl)phenyl]ethyl]amino]-N-ethylcarboxamidoadenosine] |  |  |  |  |  | IC50 (swine coronary arteries; [6]): 0.08 µM; inhibition at 1 µM (rat adipocytes; Rattus norvegicus, Adipocyte): 0%; antilipolytic activity (rat adipocytes; statement in words): do not exhibit antilipolytic activity
12 | OC[C@H]1O[C@@H](n2cnc3c(N[C@@H]4CC=CC[C@H]4c4ccsc4)ncnc32)[C@H](O)[C@@H]1O (relative stereo) [Example 8, N^6-[trans-2-(thiophen-3-yl)-cyclohex-4-en-1-yl]adenosine] | 138 | 5 |  | 23 | 10 | 

Now from value to compound, other results behind:

Row | IC50 (A2 receptor; [2]) [nM] | IC50 (A1 receptor) [nM] | IC50 (swine coronary arteries; [5]) [µM] | SMILES | Anesthetized Rat HR/ED25 [1] [µg/kg] | Anesthetized Rat MAP/ED25 [1] [µg/kg] | also measured
13 | 891 | 0.32 | 4.4 | CCNC(=O)[C@H]1O[C@@H](n2cnc3c(NCCNc4nc5ccccc5s4)ncnc32)[C@H](O)[C@@H]1O [Example 23] | 7 | 6 | 
14 | 1440 | 8.35 |  | CO[C@@H]1[C@H](O)[C@@H](CO)O[C@H]1n1cnc2c(N[C@H](C)Cc3ccc(Cl)s3)ncnc21 [Example 48, N^6-[2-(5-chloro-2-thienyl)-(1R)-1-methylethyl]-2′-O-methyladenosine] |  |  | EC50 (rat adipocytes; [4]): 1.86 nM
15 | > 1000 | > 1000 |  | CCNC(=O)[C@H]1C[C@@H](n2cnc3c(NCCc4scnc4C)ncnc32)[C@H](O)[C@@H]1O (relative stereo) [Example 24, (±)-N^6-[2-(4″-methyl-5″-thiazolyl)ethyl]carbocydic adenosine-5′-N-ethyl carboxamide] | >10 | 6 | 
16 | 52 | 166 | 0.46 | Cc1csc(CNc2ncnc3c2ncn3[C@@H]2O[C@H](CO)[C@@H](O)[C@H]2O)n1 [Example 18, N^6-[2-(4′-methyl-2′-thiazolyl)-methyl]adenosine] | >10 | 2 | 
